This is an account of results in US20230357447A1, “TUMOR ACTIVATED MULTISPECIFIC ANTIBODIES FOR TARGETING CD28 AND PD-L1 AND METHODS OF USE THEREOF” (Janux Therapeutics, Inc., priority 2022, published 2023).

In one assay the test system is anti-CD28 scFv (SEQ ID NO: 9). In words: Octet bio-layer interferometry kinetic binding of anti-CD28 scFv to peptides. More on the design: species or system human. As to conditions: Octet RED96; biotinylated peptide loaded on streptavidin biosensor; anti-CD28 scFv in solution; 1:1 binding model. The protocol:
(§1) Association and dissociation signals were recorded in real time and analyzed using a 1:1 binding model within the instrument software. Analysis using a 1:1 binding model enabled the calculation of the on and off rate constants as well as affinity, KD.
as §1
Consider `CC[C@H](C)[C@@H]1NC(=O)[C@@H]2CCCN2C(=O)[C@@H](NC(=O)[C@H](Cc2c[nH]c3ccccc23)NC(=O)[C@H](CC(=O)O)NC(=O)[C@@H](N)CCSC)CSSC[C@@H](C(=O)N[C@@H](Cc2ccccc2)C(=O)N[C@@H](Cc2ccccc2)C(=O)O)NC(=O)[C@H](CCC(=O)O)NC(=O)[C@H](CC(N)=O)NC(=O)[C@H](Cc2c[nH]c3ccccc23)NC(=O)[C@H](CC(C)C)NC(=O)[C@H](CC(=O)O)NC1=O` [Peptide-31], for which the “kdis” value turned out to be 0.00369 s⁻¹.
For `CC[C@H](C)[C@@H]1NC(=O)[C@@H]2CCCN2C(=O)[C@@H](NC(=O)[C@H](Cc2c[nH]c3ccccc23)NC(=O)[C@H](CC(=O)O)NC(=O)[C@@H](N)CCSC)CSSC[C@@H](C(=O)N[C@@H](Cc2ccccc2)C(=O)N[C@@H](CC(N)=O)C(=O)O)NC(=O)[C@H](C(C)C)NC(=O)[C@H](Cc2c[nH]cn2)NC(=O)[C@H](Cc2c[nH]c3ccccc23)NC(=O)[C@H](CC(C)C)NC(=O)[C@H](Cc2c[nH]cn2)NC1=O` [Peptide-32], the “kdis” value was 0.00295 s⁻¹.
The same measure, in the same setting: the same measure for `CC[C@H](C)[C@@H]1NC(=O)[C@@H]2CCCN2C(=O)[C@@H](NC(=O)[C@H](Cc2c[nH]c3ccccc23)NC(=O)[C@H](CC(=O)O)NC(=O)[C@@H](N)CCSC)CSSC[C@@H](C(=O)N[C@@H](Cc2ccccc2)C(=O)N[C@@H](CC(N)=O)C(=O)O)NC(=O)[C@H](CCC(=O)O)NC(=O)[C@H](CO)NC(=O)[C@H](Cc2c[nH]c3ccccc23)NC(=O)[C@H](CC(C)C)NC(=O)[C@H](Cc2ccc(O)cc2)NC1=O` [Peptide-33]: 0.00153 s⁻¹; for `CC[C@H](C)[C@@H]1NC(=O)[C@H](CC(=O)O)NC(=O)[C@H](CCCCN)NC(=O)[C@@H]2CCCN2C(=O)[C@@H](NC(=O)[C@H](Cc2c[nH]c3ccccc23)NC(=O)[C@H](CC(N)=O)NC(=O)[C@@H](N)CCSC)CSSC[C@@H](C(=O)N[C@@H](Cc2ccccc2)C(=O)N[C@@H](CC(N)=O)C(=O)O)NC(=O)[C@H](CC(C)C)NC(=O)[C@H](Cc2ccc(O)cc2)NC(=O)[C@H](Cc2c[nH]c3ccccc23)NC1=O` [Peptide-34]: 0.00684 s⁻¹.
Take `CSCC[C@@H]1NC(=O)[C@H](Cc2c[nH]cn2)NC(=O)[C@H](CC(C)C)NC(=O)[C@@H]2CCCN2C(=O)[C@@H](NC(=O)[C@H](Cc2c[nH]c3ccccc23)NC(=O)[C@H](CC(=O)O)NC(=O)[C@@H](N)CCSC)CSSC[C@@H](C(=O)N[C@@H](Cc2ccccc2)C(=O)N[C@@H](CO)C(=O)O)NC(=O)[C@H](CCC(=O)O)NC(=O)[C@H](Cc2c[nH]cn2)NC(=O)[C@H](Cc2c[nH]c3ccccc23)NC1=O` [Peptide-35]: the “kdis” value came out at 0.00497 s⁻¹.
As to `CSCC[C@H](N)C(=O)N[C@@H](CC(=O)O)C(=O)N[C@@H](Cc1c[nH]c2ccccc12)C(=O)N[C@H]1CSSC[C@@H](C(=O)N[C@@H](Cc2ccccc2)C(=O)N[C@@H](CC(N)=O)C(=O)O)NC(=O)[C@H](CCC(=O)O)NC(=O)[C@H](CC(N)=O)NC(=O)[C@H](Cc2c[nH]c3ccccc23)NC(=O)[C@H](CC(C)C)NC(=O)[C@H](Cc2ccc(O)cc2)NC(=O)[C@H](CC(C)C)NC(=O)[C@@H]2CCCN2C1=O` [Peptide-36], the “kdis” value was determined as 0.00252 s⁻¹.
Consider `CSCC[C@H](N)C(=O)N[C@@H](CC(=O)O)C(=O)N[C@@H](Cc1c[nH]c2ccccc12)C(=O)N[C@H]1CSSC[C@@H](C(=O)N[C@@H](Cc2ccccc2)C(=O)N[C@@H](C)C(=O)O)NC(=O)[C@H](CC(C)C)NC(=O)[C@H](CC(=O)O)NC(=O)[C@H](Cc2c[nH]c3ccccc23)NC(=O)[C@H](CC(C)C)NC(=O)[C@H](CC(=O)O)NC(=O)[C@H](CCCNC(=N)N)NC(=O)[C@@H]2CCCN2C1=O` [Peptide-37], for which the “kdis” value came to 0.00351 s⁻¹.
`CSCC[C@H](N)C(=O)N[C@@H](CC(=O)O)C(=O)N[C@@H](Cc1c[nH]c2ccccc12)C(=O)N[C@H]1CSSC[C@@H](C(=O)N[C@@H](Cc2ccccc2)C(=O)N[C@@H](C)C(=O)O)NC(=O)[C@H](CCC(=O)O)NC(=O)[C@H](Cc2c[nH]cn2)NC(=O)[C@H](Cc2c[nH]c3ccccc23)NC(=O)[C@H](CC(C)C)NC(=O)[C@H](CC(=O)O)NC(=O)[C@H](CCCNC(=N)N)NC(=O)[C@@H]2CCCN2C1=O` [Peptide-38]: the “kdis” value is 0.00277 s⁻¹.
As for `CSCC[C@H](N)C(=O)N[C@@H](CC(=O)O)C(=O)N[C@@H](Cc1c[nH]c2ccccc12)C(=O)N[C@H]1CSSC[C@@H](C(=O)N[C@@H](Cc2ccccc2)C(=O)N[C@@H](CO)C(=O)O)NC(=O)[C@H](CC(C)C)NC(=O)[C@H](Cc2c[nH]cn2)NC(=O)[C@H](Cc2c[nH]c3ccccc23)NC(=O)[C@H](CC(C)C)NC(=O)[C@H](CC(=O)O)NC(=O)[C@H](CCCNC(=N)N)NC(=O)[C@@H]2CCCN2C1=O` [Peptide-39], the “kdis” value turned out to be 0.00265 s⁻¹.
Regarding `CSCC[C@H](N)C(=O)N[C@@H](CC(=O)O)C(=O)N[C@@H](Cc1c[nH]c2ccccc12)C(=O)N[C@H]1CSSC[C@@H](C(=O)N[C@@H](Cc2ccccc2)C(=O)N[C@@H](Cc2ccccc2)C(=O)O)NC(=O)[C@H](CCC(=O)O)NC(=O)[C@H](CO)NC(=O)[C@H](Cc2c[nH]c3ccccc23)NC(=O)[C@H](CC(C)C)NC(=O)[C@H](CC(=O)O)NC(=O)[C@H](CCCNC(=N)N)NC(=O)[C@@H]2CCCN2C1=O` [Peptide-40], the “kdis” value stood at 0.0031 s⁻¹.

Another assay relates to anti-CD28 scFv. In words: Phage binding ELISA (panning) of clonal phage on anti-CD28 scFv, with or without CD28 soluble protein. Particulars: clonal phage supernatant; background (no anti-CD28 scFv signal). The procedure, abridged: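 Wells pre-incubated with blocking buffer plus CD28 soluble protein or blocking buffer alone, then crude clonal phage supernatants added without washing for a short incubation. After washing, bound phage detected with HRP-conjugated anti-M13 antibody.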
For Phage-432 (IDWCPIIQGLPCFA), the “Phage binding ELISA Backgroud signal” value is 0.058.
Turning to Phage-433 (MAWCPWAQFDECLA), the “Phage binding ELISA Backgroud signal” value is listed as 0.073.
For the compound Phage-434 (IVWCPTTQWNRCAT), the “Phage binding ELISA Backgroud signal” value stood at 0.113.
For the compound Phage-435 (MDWCPRDRWVDCYA), the “Phage binding ELISA Backgroud signal” value amounted to 0.157.
For the compound Phage-436 (MDWCPRDRWADCFN), the “Phage binding ELISA Backgroud signal” value is recorded as 0.063.
As to Phage-437 (MDWCPVDRWADCFN), the “Phage binding ELISA Backgroud signal” value is on record as 0.071.
In the case of Phage-438 (MDWCPMSRWAFCFD), the “Phage binding ELISA Backgroud signal” value is recorded as 0.071.
Phage-439 (MDWCPRDRWDVCFA): the “Phage binding ELISA Backgroud signal” value stood at 0.073.
Turning to Phage-440 (MDWCPRDRWVDCFN), the “Phage binding ELISA Backgroud signal” value is reported as 0.106.
For Phage-441 (MDWCPRDRWDDCFF), the “Phage binding ELISA Backgroud signal” value was 0.114.
With Phage-442 (IYWCPIDRWNDCYN), the “Phage binding ELISA Backgroud signal” value stood at 0.177.
Phage-443 (MDWCPMTRWNDCYF): the “Phage binding ELISA Backgroud signal” value worked out at 0.081.
For the compound Phage-444 (VNQCTRYRWAECLN), the “Phage binding ELISA Backgroud signal” value was found to be 0.465.
The same measure, in the same setting: the same measure for Phage-445 (MDWCPRARWHDCFF): 0.097; for Phage-446 (MDWCPRDRWDDCFN): 0.069.
On to Phage-448 (MAWCPWASFDECLA), for which the “Phage binding ELISA Backgroud signal” value is recorded as 0.104.
Turning to Phage-449 (MVDCPLISFDECLA), the “Phage binding ELISA Backgroud signal” value worked out at 0.246.
Regarding Phage-450 (EDWCPTDVWPYCFS), the “Phage binding ELISA Backgroud signal” value amounted to 0.100.
Phage-451 (MDWCPRFWWHECYA): the “Phage binding ELISA Backgroud signal” value came out at 0.246.
Phage-452 (MDWCPRDWWHMCFN): the “Phage binding ELISA Backgroud signal” value is 0.100.

Still in this assay, the particulars now being: clonal phage supernatant; background signal.
In the case of Phage-453 (MDWCPSDYWYVCFA), the “Phage binding ELISA Backgroud signal” value came out at 0.065.
